# Laboratory results published in ChEMBL document CHEMBL4364276, “Discovery of 4-phenyl-2H-benzo[b][1,4]oxazin-3(4H)-one derivatives as potent and orally active PI3K/mTOR dual inhibitors” (Eur J Med Chem, 2019).
# Assays:
# [1] = biological target: Mitogen-activated protein kinase 15 (Homo sapiens) (UniProt Q8TD08); assay: Inhibition of human ERK7 at 100 nM using MBP as substrate by [gamma-33P]-ATP assay
# [2] = biological target: Calcium/calmodulin-dependent protein kinase kinase 2 (Homo sapiens) (UniProt Q96RR4); assay: Inhibition of human CAMKK2 at 100 nM using MBP as substrate by [gamma-33P]-ATP assay
# [3] = biological target: Protein kinase C delta type (Homo sapiens) (UniProt Q05655); assay: Inhibition of human PKCdelta at 100 nM using ERMRPRKRQGSVRRRV as substrate by [gamma-33P]-ATP assay
# [4] = biological target: Tau-tubulin kinase 2 (Homo sapiens) (UniProt Q6IQ55); assay: Inhibition of human TTBK2 at 100 nM using MBP as substrate by [gamma-33P]-ATP assay
# [5] = biological target: Serine/threonine-protein kinase/endoribonuclease IRE1 (Homo sapiens) (UniProt O75460); assay: Inhibition of human ERN1 at 100 nM using MBP as substrate by [gamma-33P]-ATP assay
# [6] = biological target: Dual specificity protein kinase CLK3 (Homo sapiens) (UniProt P49761); assay: Inhibition of human CLK3 at 100 nM using MBP as substrate by [gamma-33P]-ATP assay
# [7] = biological target: Protein kinase C eta type (Homo sapiens) (UniProt P24723); assay: Inhibition of human PKCeta at 100 nM using ERMRPRKRQGSVRRRV as substrate by [gamma-33P]-ATP assay
# [8] = biological target: Non-receptor tyrosine-protein kinase TNK1 (Homo sapiens) (UniProt Q13470); assay: Inhibition of human TNK1 at 100 nM using poly[Glu:Tyr] (4:1) as substrate by [gamma-33P]-ATP assay
# Chain of Non-receptor tyrosine-protein kinase TNK1 (Homo sapiens) (Q13470 whole entry): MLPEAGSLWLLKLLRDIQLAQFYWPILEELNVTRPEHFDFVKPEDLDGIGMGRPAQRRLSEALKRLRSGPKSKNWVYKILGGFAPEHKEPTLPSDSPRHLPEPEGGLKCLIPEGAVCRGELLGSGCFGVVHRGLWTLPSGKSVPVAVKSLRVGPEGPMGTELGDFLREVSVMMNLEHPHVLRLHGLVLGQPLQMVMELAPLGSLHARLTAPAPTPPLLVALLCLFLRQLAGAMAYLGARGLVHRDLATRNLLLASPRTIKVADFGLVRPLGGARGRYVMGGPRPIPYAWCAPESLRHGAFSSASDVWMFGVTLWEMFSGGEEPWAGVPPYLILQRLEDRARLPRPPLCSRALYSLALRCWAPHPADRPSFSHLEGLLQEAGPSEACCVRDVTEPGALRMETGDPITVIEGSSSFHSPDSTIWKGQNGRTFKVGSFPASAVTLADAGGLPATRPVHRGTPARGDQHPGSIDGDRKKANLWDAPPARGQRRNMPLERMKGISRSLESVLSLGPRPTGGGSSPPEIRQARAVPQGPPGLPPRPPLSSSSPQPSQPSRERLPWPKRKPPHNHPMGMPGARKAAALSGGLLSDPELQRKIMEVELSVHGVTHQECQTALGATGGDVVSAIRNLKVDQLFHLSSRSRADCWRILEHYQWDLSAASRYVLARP
# [9] = biological target: Protein kinase C zeta type (Homo sapiens) (UniProt Q05513); assay: Inhibition of human PKCzeta at 100 nM using ERMRPRKRQGSVRRRV as substrate by [gamma-33P]-ATP assay
# [10] = biological target: Serine/threonine-protein kinase SBK1 (Homo sapiens) (UniProt Q52WX2); assay: Inhibition of human SBK1 at 100 nM using LCGRTGRRNSI as substrate by [gamma-33P]-ATP assay
# [11] = biological target: Tyrosine-protein kinase CSK (Homo sapiens) (UniProt P41240); assay: Inhibition of human CSK at 100 nM using poly[Glu:Tyr] (4:1) as substrate by [gamma-33P]-ATP assay
# [12] = biological target: Proto-oncogene tyrosine-protein kinase Src (Homo sapiens) (UniProt P12931); assay: Inhibition of human c-SRC at 100 nM using poly[Glu:Tyr] (4:1) as substrate by [gamma-33P]-ATP assay
# L02 = assay: Cytotoxicity against human LO2 cells assessed as reduction in cell viability at 0.625 to 20 uM incubated for 72 hrs by MTT assay; assay type: cell-based; conditions: l02, 72 h
# [13] = biological target: Ephrin type-A receptor 7 (Homo sapiens) (UniProt Q15375); assay: Inhibition of human EPHA7 at 100 nM using poly[Glu:Tyr] (4:1) as substrate by [gamma-33P]-ATP assay
# Chain of Ephrin type-A receptor 7 (Homo sapiens) (Q15375 28-998 limits assumed): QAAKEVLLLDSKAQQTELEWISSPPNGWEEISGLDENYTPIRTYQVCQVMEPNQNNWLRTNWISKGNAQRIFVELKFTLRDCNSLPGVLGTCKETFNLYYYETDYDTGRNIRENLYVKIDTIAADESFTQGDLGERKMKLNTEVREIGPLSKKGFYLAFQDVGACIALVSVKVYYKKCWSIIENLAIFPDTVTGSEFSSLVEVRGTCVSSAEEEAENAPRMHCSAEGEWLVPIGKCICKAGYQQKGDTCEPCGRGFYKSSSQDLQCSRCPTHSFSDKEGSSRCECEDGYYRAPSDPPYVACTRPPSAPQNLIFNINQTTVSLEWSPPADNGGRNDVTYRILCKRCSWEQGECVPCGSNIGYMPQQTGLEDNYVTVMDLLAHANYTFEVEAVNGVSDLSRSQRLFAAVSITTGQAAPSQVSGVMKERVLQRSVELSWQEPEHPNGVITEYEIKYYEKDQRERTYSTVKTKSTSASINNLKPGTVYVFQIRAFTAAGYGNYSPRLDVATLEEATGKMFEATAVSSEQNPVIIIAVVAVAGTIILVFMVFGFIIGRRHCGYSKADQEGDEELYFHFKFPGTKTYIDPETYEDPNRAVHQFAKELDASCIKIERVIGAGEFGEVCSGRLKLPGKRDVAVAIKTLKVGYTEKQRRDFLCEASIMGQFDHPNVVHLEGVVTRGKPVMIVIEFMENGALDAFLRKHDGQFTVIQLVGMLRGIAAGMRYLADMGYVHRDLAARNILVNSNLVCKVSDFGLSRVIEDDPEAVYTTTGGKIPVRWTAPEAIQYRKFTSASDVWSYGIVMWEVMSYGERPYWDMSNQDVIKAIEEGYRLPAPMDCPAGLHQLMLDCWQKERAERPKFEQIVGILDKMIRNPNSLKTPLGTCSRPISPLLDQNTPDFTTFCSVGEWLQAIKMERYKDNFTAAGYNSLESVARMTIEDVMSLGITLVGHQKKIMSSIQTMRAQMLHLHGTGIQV
# [14] = biological target: CDK4/Cyclin D3 (Homo sapiens) (UniProt P11802+P30281); assay: Inhibition of human CDK4/cyclin-D3 at 100 nM using RB-CTF as substrate by [gamma-33P]-ATP assay; assay type: protein-complex assay
# [15] = biological target: Serine/threonine-protein kinase PAK 5 (Homo sapiens) (UniProt Q9P286); assay: Inhibition of human PAK5 at 100 nM using RRRLSFAEPG as substrate by [gamma-33P]-ATP assay
# Chain of Serine/threonine-protein kinase PAK 5 (Homo sapiens) (Q9P286 whole entry, looked up): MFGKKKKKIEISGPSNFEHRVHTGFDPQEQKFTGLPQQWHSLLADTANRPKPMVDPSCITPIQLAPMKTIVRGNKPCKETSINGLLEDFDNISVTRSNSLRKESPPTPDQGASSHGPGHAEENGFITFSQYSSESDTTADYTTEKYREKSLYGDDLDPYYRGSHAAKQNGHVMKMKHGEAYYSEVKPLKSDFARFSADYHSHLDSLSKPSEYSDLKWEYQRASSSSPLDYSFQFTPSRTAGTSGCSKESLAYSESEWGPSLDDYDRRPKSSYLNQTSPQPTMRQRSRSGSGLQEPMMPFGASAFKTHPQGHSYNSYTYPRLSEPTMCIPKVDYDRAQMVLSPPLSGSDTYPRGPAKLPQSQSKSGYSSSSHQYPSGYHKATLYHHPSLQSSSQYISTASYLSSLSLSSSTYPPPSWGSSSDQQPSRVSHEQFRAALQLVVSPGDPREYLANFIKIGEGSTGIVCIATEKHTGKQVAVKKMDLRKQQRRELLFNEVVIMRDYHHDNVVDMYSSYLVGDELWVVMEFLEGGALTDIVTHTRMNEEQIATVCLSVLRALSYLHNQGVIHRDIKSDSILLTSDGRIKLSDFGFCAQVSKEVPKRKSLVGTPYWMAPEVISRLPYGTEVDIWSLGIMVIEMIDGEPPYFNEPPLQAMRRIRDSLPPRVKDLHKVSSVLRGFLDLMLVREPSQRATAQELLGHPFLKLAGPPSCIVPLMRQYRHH
# [16] = biological target: RAC-gamma serine/threonine-protein kinase (Homo sapiens) (UniProt Q9Y243); assay: Inhibition of human AKT3 at 100 nM using KGSGSGRPRTSSFAEG as substrate by [gamma-33P]-ATP assay
# [17] = biological target: Cyclin-dependent kinase 1/cyclin B1 (Homo sapiens) (UniProt P06493+P14635); assay: Inhibition of human CDK1/cyclinB at 100 nM using Histone H1 as substrate by [gamma-33P]-ATP assay; assay type: protein-complex assay
# [18] = biological target: Serine/threonine-protein kinase N3 (Homo sapiens) (UniProt Q6P5Z2); assay: Inhibition of human PKN3 at 100 nM using KKLNRTLSVA as substrate by [gamma-33P]-ATP assay
# [19] = biological target: Dual specificity mitogen-activated protein kinase kinase 7 (Homo sapiens) (UniProt O14733); assay: Inhibition of human MKK7 at 100 nM using JNK as substrate by [gamma-33P]-ATP assay
# Chain of Dual specificity mitogen-activated protein kinase kinase 7 (Homo sapiens) (O14733 whole entry): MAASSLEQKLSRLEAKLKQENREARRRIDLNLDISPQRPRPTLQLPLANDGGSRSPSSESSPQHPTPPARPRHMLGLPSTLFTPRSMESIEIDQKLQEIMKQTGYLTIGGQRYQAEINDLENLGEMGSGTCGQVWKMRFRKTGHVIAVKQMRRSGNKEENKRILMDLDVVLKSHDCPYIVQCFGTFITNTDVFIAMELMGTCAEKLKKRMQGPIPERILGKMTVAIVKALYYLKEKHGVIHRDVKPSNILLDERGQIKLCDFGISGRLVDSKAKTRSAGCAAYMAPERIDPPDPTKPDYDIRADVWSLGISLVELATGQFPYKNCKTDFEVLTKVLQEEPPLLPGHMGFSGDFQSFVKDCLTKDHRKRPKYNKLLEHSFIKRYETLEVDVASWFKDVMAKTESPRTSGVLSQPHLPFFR
# [20] = biological target: SNF-related serine/threonine-protein kinase (Homo sapiens) (UniProt Q9NRH2); assay: Inhibition of human SNRK at 100 nM using MBP as substrate by [gamma-33P]-ATP assay
# Chain of SNF-related serine/threonine-protein kinase (Homo sapiens) (Q9NRH2 whole entry): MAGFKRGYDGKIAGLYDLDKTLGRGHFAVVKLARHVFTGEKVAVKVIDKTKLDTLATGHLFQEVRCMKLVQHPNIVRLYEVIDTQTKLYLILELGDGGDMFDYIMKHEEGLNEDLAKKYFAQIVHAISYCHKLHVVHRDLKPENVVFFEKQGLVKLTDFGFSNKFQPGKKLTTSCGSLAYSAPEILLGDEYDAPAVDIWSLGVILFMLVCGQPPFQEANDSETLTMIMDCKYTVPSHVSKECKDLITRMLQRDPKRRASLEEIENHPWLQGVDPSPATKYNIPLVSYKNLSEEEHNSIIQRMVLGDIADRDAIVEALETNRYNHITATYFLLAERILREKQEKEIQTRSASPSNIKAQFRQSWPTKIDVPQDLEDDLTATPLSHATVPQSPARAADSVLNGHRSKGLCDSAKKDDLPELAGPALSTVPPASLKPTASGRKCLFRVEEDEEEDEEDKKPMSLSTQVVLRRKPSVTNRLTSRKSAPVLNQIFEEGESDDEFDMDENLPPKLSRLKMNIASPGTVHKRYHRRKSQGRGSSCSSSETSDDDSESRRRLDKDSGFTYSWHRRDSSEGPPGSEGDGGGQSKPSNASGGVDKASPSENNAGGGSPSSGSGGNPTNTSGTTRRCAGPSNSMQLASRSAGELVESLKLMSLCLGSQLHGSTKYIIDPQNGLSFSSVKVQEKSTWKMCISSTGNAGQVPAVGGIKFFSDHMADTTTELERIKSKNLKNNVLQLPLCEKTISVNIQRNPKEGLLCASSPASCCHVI
# HeLa = assay: Antitumor activity against human HeLa cells xenografted in ig dosed BALB/c nude mouse assessed as tumor growth inhibition administered for 30 days measured every 3 days during compound dosing relative to control; assay type: functional, organism-based
# [21] = biological target: Testis-specific serine/threonine-protein kinase 6 (Homo sapiens) (UniProt Q9BXA6); assay: Inhibition of human SSTK at 100 nM using MBP as substrate by [gamma-33P]-ATP assay
# [22] = biological target: Serine/threonine-protein kinase Nek8 (Homo sapiens) (UniProt Q86SG6); assay: Inhibition of human NEK8 at 100 nM using casein as substrate by [gamma-33P]-ATP assay
# [23] = biological target: Serine/threonine-protein kinase BRSK2 (Homo sapiens) (UniProt Q8IWQ3); assay: Inhibition of human BRSK2 at 100 nM using KKLNRTLSFAEPG as substrate by [gamma-33P]-ATP assay
# Chain of Serine/threonine-protein kinase BRSK2 (Homo sapiens) (Q8IWQ3 whole entry): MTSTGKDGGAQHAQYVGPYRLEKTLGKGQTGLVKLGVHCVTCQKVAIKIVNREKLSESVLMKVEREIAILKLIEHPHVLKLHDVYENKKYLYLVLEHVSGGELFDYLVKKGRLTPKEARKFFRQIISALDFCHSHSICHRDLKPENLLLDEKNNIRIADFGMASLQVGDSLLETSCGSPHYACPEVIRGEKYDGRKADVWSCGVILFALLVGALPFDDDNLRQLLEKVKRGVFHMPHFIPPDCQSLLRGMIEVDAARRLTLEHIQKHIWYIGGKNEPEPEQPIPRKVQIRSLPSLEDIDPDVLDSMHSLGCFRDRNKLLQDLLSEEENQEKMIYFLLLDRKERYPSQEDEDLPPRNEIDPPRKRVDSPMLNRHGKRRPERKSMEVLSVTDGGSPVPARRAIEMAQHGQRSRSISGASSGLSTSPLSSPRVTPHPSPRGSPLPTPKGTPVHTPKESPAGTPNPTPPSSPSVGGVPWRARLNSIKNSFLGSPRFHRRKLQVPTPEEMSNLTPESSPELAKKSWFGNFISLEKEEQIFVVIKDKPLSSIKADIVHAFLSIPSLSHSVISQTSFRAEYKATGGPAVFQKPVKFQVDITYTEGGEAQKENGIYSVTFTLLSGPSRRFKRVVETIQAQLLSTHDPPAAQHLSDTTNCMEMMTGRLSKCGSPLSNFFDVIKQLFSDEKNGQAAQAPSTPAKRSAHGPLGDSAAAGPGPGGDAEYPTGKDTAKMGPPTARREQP
# [24] = biological target: Beta-adrenergic receptor kinase 1 (Homo sapiens) (UniProt P25098); assay: Inhibition of human GRK2 at 100 nM using casein as substrate by [gamma-33P]-ATP assay
# [25] = biological target: Serine/threonine-protein kinase 4 (Homo sapiens) (UniProt Q13043); assay: Inhibition of human MST1 at 100 nM using KKSRGDYMTMQIG as substrate by [gamma-33P]-ATP assay
# [26] = biological target: CDK2/Cyclin A2 (Homo sapiens) (UniProt P24941+P20248); assay: Inhibition of human CDK2/cyclin-A at 100 nM using histone H1 as substrate by [gamma-33P]-ATP assay; assay type: protein-complex assay
# [27] = biological target: Calcium/calmodulin-dependent protein kinase type 1D (Homo sapiens) (UniProt Q8IU85); assay: Inhibition of human CAMK1D at 100 nM using KKALRRQETVDAL as substrate by [gamma-33P]-ATP assay
# [28] = biological target: Mitogen-activated protein kinase 1 (Homo sapiens) (UniProt P28482); assay: Inhibition of human ERK2 at 100 nM using MBP as substrate by [gamma-33P]-ATP assay
# [29] = biological target: Ephrin type-A receptor 4 (Homo sapiens) (UniProt P54764); assay: Inhibition of human EPHA4 at 100 nM using poly[Glu:Tyr] (4:1) as substrate by [gamma-33P]-ATP assay
# Chain of Mitogen-activated protein kinase 15 (Homo sapiens) (Q8TD08 whole entry): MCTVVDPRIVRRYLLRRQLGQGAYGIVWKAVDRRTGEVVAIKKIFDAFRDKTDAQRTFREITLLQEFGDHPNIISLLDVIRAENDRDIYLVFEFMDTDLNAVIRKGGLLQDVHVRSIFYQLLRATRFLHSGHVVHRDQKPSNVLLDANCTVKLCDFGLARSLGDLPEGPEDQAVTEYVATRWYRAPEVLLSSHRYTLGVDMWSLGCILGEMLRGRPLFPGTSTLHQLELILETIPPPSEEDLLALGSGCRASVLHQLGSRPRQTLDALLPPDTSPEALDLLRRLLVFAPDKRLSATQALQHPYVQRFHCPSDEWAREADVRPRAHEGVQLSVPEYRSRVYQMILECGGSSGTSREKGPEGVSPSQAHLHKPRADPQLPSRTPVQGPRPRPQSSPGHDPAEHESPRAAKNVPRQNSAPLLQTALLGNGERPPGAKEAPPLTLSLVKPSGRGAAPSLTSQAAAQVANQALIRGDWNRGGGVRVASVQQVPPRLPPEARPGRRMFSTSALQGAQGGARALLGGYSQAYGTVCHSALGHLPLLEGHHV
structure (smiles),measurement,setting,value
COc1ccc(N2C(=O)COc3ccc(-c4cnc(OC)c(NS(=O)(=O)c5ccc(F)cc5)c4)cc32)cc1,inhibition,[1],-4.54%
same,inhibition,[2],13.7%
same,inhibition,[3],2.24%
same,inhibition,[4],-3.23%
same,inhibition,[5],-2.68%
same,inhibition,[6],7.47%
same,inhibition,[7],18%
same,inhibition,[8],10.7%
same,inhibition,[9],8.59%
same,inhibition,[10],7.68%
same,inhibition,[11],1%
same,inhibition,[12],6.76%
same,Activity,L02,Non-Toxic
same,inhibition,[13],11.5%
same,inhibition,[14],-5.7%
same,inhibition,[15],-1.26%
same,inhibition,[16],5.88%
same,inhibition,[17],-2.84%
same,inhibition,[18],-1.97%
same,inhibition,[19],-2.26%
same,inhibition,[20],17.7%
same,TGI,HeLa,Dose-dependent effect
same,inhibition,[21],2.2%
same,inhibition,[22],14.4%
same,inhibition,[23],-1.64%
same,inhibition,[24],0.16%
same,inhibition,[25],11.4%
same,inhibition,[26],2.43%
same,inhibition,[27],0%
same,inhibition,[28],17.4%
same,inhibition,[29],6.1%
